As usually defined, the inhibition is the change of the read-out against control, counted positive when it falls.

Among the test systems are ABHD11; APEH; ESD; LYPLA1; LYPLA2.
Common to all, as to assay: LYPLA1/LYPLA2 inhibition and hydrolase selectivity, late-stage follow-up, selectivity assay for LYPLA1/LYPLA2 dual inhibitor project, biochemical, gel-based ABPP, fluorescence, proteome (AID 493111)
Common to all, as to details: fluorophosphonate-rhodamine competition, at 1.5 µM (top of the series)

Each structure is given as a SMILES string. Activity calls are given as the source filed them. The rule behind the calls is not given here.

Regarding `COC1CCN(C(=O)n2ncc(C(O)(c3ccccc3)c3ccccc3)n2)CC1`, the inhibition was 100% in the experiment on ABHD11; 0% (inactive) in the experiment with APEH; 100% (inactive) in the experiment on ESD; 100% with LYPLA1; 100% in the experiment on LYPLA2.
For the compound `O=C(N1CCOCC1)n1ncc(C(O)(c2ccccc2)c2ccccc2)n1`, the inhibition with ABHD11 was 100%; in the experiment on APEH, 50% (inactive); with ESD it was 50% (inactive); in the experiment on LYPLA1, 100%; with LYPLA2, 50% (inactive).
Regarding `O=C(N1CCCCC1)n1ncc(C(O)(c2ccccc2)c2ccccc2)n1`, the inhibition with ABHD11 is 100%; in the experiment on APEH, 50% (inactive); in the experiment on ESD, 100%; in the experiment with LYPLA1 it was 100%; in the experiment with LYPLA2, 100%.
With `O=C(N1CCOCC1)n1ccnn1`, the inhibition in the experiment with ABHD11 was 100%; in the experiment with APEH, 0% (inactive); in the experiment on ESD, 0% (inactive); with LYPLA1, 0% (inactive); in the experiment on LYPLA2, 0% (inactive).
On to `CC(C)(C)C1CCN(C(=O)n2ncc(C(O)(c3ccccc3)c3ccccc3)n2)CC1`, for which the inhibition was 100% with ABHD11; 0% (inactive) in the experiment on APEH; 50% (inactive) with ESD; 100% in the experiment on LYPLA1; 100% with LYPLA2.
With `CC(C)(O)c1cnn(C(=O)N2CCC(C(C)(C)C)CC2)n1`, the inhibition in the experiment on ABHD11 is 100% (inactive); with APEH it was 0% (inactive); in the experiment on ESD, 0% (inactive); in the experiment with LYPLA1, 100%; in the experiment on LYPLA2 it was 100%.
Consider `O=C(N1CCC(Cc2ccccc2)CC1)n1ncc(C(O)(c2ccccc2)c2ccccc2)n1`, for which the inhibition in the experiment with ABHD11 is 100%; in the experiment on APEH it was 0% (inactive); in the experiment with ESD, 50% (inactive); with LYPLA1, 100%; in the experiment with LYPLA2, 100%.
Regarding `O=C(N1CCOCC1)n1ncc(-c2ccccc2)n1`, the inhibition in the experiment on ABHD11 is 100%; in the experiment on APEH it was 100%; in the experiment on ESD, 75%; with LYPLA1 it was 0% (inactive); in the experiment with LYPLA2 it was 0% (inactive).
`CC1CCN(C(=O)n2ncc(C(O)(c3ccccc3)c3ccccc3)n2)CC1`: the inhibition with ABHD11 was 100%; in the experiment on APEH, 100%; with ESD, 75% (inactive); in the experiment with LYPLA1, 100%; in the experiment with LYPLA2 it was 100%.
Consider `O=C(N1CCCCC1)n1ccnn1`, for which the inhibition with ABHD11 is 100%; with APEH, 0% (inactive); with ESD it was 0% (inactive); with LYPLA1 it was 75% (inactive); in the experiment with LYPLA2, 0% (inactive).
`O=C(N1CCOCC1)n1ncc(-c2ccc(OC(F)(F)F)cc2)n1`: the inhibition with ABHD11 is 100%; with APEH, 50% (inactive); in the experiment on ESD, 75% (inactive); with LYPLA1, 0% (inactive); in the experiment on LYPLA2, 0% (inactive).
For `O=C(N1CCCCC1)n1ncc(C(O)c2ccccc2)n1` (stereo not given), the inhibition in the experiment on ABHD11 is 100%; with APEH, 0% (inactive); with ESD, 75%; in the experiment with LYPLA1, 100%; in the experiment with LYPLA2, 75%.
As to `O=C(N1CCOCC1)n1nnc2ccccc21`, the inhibition was 100% with ABHD11; 100% (inactive) in the experiment on APEH; 50% (inactive) in the experiment with ESD; 50% (inactive) in the experiment on LYPLA1; 0% (inactive) with LYPLA2.
Turning to `CCC1CCCCN1C(=O)n1ncc(C(O)(c2ccccc2)c2ccccc2)n1` (stereo not given), the inhibition is 100% in the experiment on ABHD11; 50% (inactive) with APEH; 0% (inactive) with ESD; 0% (inactive) with LYPLA1; 0% (inactive) in the experiment with LYPLA2.
Regarding `O=C(N1CCCCC1)n1ncc(-c2ccc(Oc3ccccc3)cc2)n1`, the inhibition with ABHD11 is 100%; in the experiment with APEH, 0% (inactive); in the experiment with ESD, 100%; with LYPLA1, 100%; in the experiment with LYPLA2 it was 0% (inactive).
With `COc1ccc2cc(-c3cnn(C(=O)N4CCCCC4)n3)ccc2c1`, the inhibition is 100% with ABHD11; 75% (inactive) in the experiment with APEH; 100% in the experiment with ESD; 100% (inactive) in the experiment on LYPLA1; 50% (inactive) in the experiment with LYPLA2.
On to `CC(C)(C)C1CCN(C(=O)n2ncc(C3(O)CCCCC3)n2)CC1`, for which the inhibition with ABHD11 was 100%; in the experiment with APEH, 0% (inactive); in the experiment with ESD it was 50% (inactive); with LYPLA1, 100%; in the experiment on LYPLA2 it was 100%.
For `O=C(N1CCCC(Cc2ccccc2)C1)n1cc(C(O)(c2ccccc2)c2ccccc2)nn1` (stereo not given), the inhibition with ABHD11 is 100%; with APEH it was 0% (inactive); in the experiment with ESD, 50% (inactive); with LYPLA1, 100%; in the experiment with LYPLA2 it was 100%.
As to `O=C(N1CCC(C(O)(c2ccccc2)c2ccccc2)CC1)n1ncc(C(O)(c2ccccc2)c2ccccc2)n1`, the inhibition is 100% with ABHD11; 0% (inactive) with APEH; 0% (inactive) with ESD; 100% in the experiment with LYPLA1; 100% in the experiment on LYPLA2.
As for `O=C(N1CCOCC1)n1ncc(-c2cc(F)cc(F)c2)n1`, the inhibition in the experiment with ABHD11 was 100%; in the experiment with APEH, 100%; in the experiment with ESD, 75%; in the experiment on LYPLA1 it was 50% (inactive); in the experiment on LYPLA2, 0% (inactive).

(Values after PubChem BioAssay AID493111 (The Scripps Research Institute Molecular Screening Center, 2011).)
